Experimental data reported in patent publication US20100120690A1, “Polypeptides Having Antimicrobial Activity and Polynucleotides Encoding Same” (Novozymes Adenium Biotech A/S, priority 2005, published 2010).

system: Staphylococcus aureus, ATCC 25923; assay: MIC, NCCLS/CLSI guidelines (Example 5), strain B; type: cell-based; details: relative to wildtype Plectasin; average of two independent experiments
Method: (§1) Plectasin wild-type (SEQ ID NO: 1) and several variants of Plectasin were expressed and purified. The Minimal Inhibitory Concentration (MIC) was determined to test for their antimicrobial activity following the NCCLS guidelines from CLSI (Clinical and Laboratory Standards Institute; formerly known as National Committee for Clinical and Laboratory Standards).
(§2) The peptides were tested against the following strains: • A: Staphylococcus aureus, ATCC 29213; • B: Staphylococcus aureus, ATCC 25923; • C: Staphylococcus aureus, ATCC 29737; • D: Staphylococcus aureus, MRSA ST5 (2001), multi-resistant clinical human isolate from Statens Serum Institut, Denmark; • E: Staphylococcus aureus, MRSA ST80 (2003), multi-resistant clinical human isolate from Statens Serum Institut, Denmark.
(§3) All MIC values represent an average of two independent experiments; and all results in Table 5 are expressed relative to wildtype Plectasin:
(§4) 0: >100% of Plectasin wildtype MIC; 1: 80-100% of Plectasin wildtype MIC; 2: 50-80% of Plectasin wildtype MIC; 3: <50% of Plectasin wildtype MIC.

Row | Sequence | Relative MIC, strain B
1 | GFGCNGPWDENDMQCHNHCKSIKGYKGGYCAKGGFVCKCY [Mutation D11N] | 3 (<50% of Plectasin wildtype MIC)
2 | GFGCNGPWGEDDMRCHNHCKSIRGYKGGYCAKGGFVCKCY [D9G + Q14R + K23R] | 3 (<50% of Plectasin wildtype MIC)
3 | GFGCRGPWDEDDMQCHNHCKSIKGYKGGYCAKGGFVCKCY [Mutation N5R] | 2 (50-80% of Plectasin wildtype MIC)
4 | GFGCSGPWDEDDMRCHNHCKAIRGYKGGYCAKGGFVCKCY [N5S + Q14R + S21A + K23R] | 3 (<50% of Plectasin wildtype MIC)

system: Staphylococcus carnosus; assay: TAPS (Trans Acting Peptide System) assay, radial diffusion read-out; type: cell-based; set-up: key: classified as 4>3>2>1; whereas 4 is better than 1; classified as 4>3>2>1; classified as 4>3>2>1; wildtype activity corresponds to 1; details: peptide expressed in E. coli
Method: A range of antimicrobial polypeptides, which are variants of SEQ ID NO: 1, were tested in the TAPS assay. TAPS may be used to identify new or improved genes encoding peptides that can kill or inhibit the growth of target cells (see PCT application WO 2004/033715). The TAPS assay, an acronym for Trans Acting Peptide System, is based on having a sensitive host producing a peptide followed by screening for its activity in trans against an indicator strain. The advantage of this system is based on that the antimicrobial peptide is expressed in the Gram-negative bacterium E. coli and its antimicrobial activity can be monitored on different microbes including Gram-negatives, positives or fungi. Additionally, TAPS offers the possibility to produce correctly folded AMPs containing disulfide bonds in the host cells, thereby retaining their antimicrobial activities.
The TAPS approach requires first, that expression of the peptide is under control of an inducible promoter with tight regulation, because the host cells are sensitive to the peptide when producing it. Secondly, the produced peptide has to be released to the media so that it can interact with the target organism.
The TAPS screening can be carried out either in solid or liquid media. On solid media, a plasmid library is initially introduced into E. coli host cells. […] In the next step, the filter containing the colonies is transferred to LB growth medium containing inducer (0.1% arabinose) to permit peptide synthesis. Subsequently, the target strain, for example S. carnosus, is overlaid onto the plate and allowed to grow for 12-16 hours at 37° C. Finally, visual inspection of the host cells capable of reducing the proliferation of the target cells is performed and the nucleotide sequence encoding for the antimicrobial peptide is recovered from the host cells. DNA sequence analysis of the variants is obtained to elucidate the nature of the peptide.
As mentioned above, the TAPS screening can also be performed using liquid medium. This procedure requires the use of robotics to analyze large number of clones. In this system, the host E. coli origami cells are transformed with the plasmid library and plated out on LB medium+0.2% glucose+ampicillin (200 mg/L). Independent colonies are then inoculated into 96 or 384-well plates containing 200 micro-L of TB medium+ampicillin (200 mg/L) and cultured overnight at 37° C. These cultures are then replicated robotically and grown to exponential phase until inducer (0.1% arabinose) is added to trigger peptide synthesis. The next step consists in hydrolyzing the cells such that the peptide is released to the media by hot acid hydrolysis. This treatment consists on adding 1 M sodium Phosphate buffer pH 2.3 to obtain a final pH approximately of 2.3 and incubating the cultures overnight at 80° C. Next day, a 25 micro-L aliquot of the hydrolyzed cultures is used to perform an activity test against the desired target organisms. The activity test performed was a Radial Diffusion Assay (RDA) where an aliquot of the hydrolyzed cultures was added to the agarose media inoculated with the target strain, S. carnosus. […] Measurements of the diameter of the clearing zones were performed to quantify the potency of the antimicrobial activity of the peptides.
The antimicrobial activity (against Staphylococcus carnosus) of the tested plectasin variants, which was measured using the TAPS assay, is shown in table 3. The antimicrobial activity corresponds to the clearing zone size and has been classified as 4>3>2>1; whereas 4 is better than 1, and wildtype activity corresponds to 1.

Row | Sequence | Activity (antimicrobial activity, clearing zone size)
5 | GFGCKGPWDEDDMQCHNHCKSIKGYKGGYCAKGGFVCKCY [Mutation N5K] | 2
6 | GFGCNGPWDEDDKQCHNHCKSIKGYKGGYCAKGGFVCKCY [Mutation M13K] | 3

system: Staphylococcus carnosus ATCC51365; assay: Yeast screening assay: radial diffusion assay of yeast supernatants; type: cell-based; set-up: key: An activity of 3 is better than Plectasin; An activity of 2 corresponds to the activity of Plectasin; 1 is worse than Plectasin; details: yeast supernatant, clearing zone in radial diffusion assay
Outline: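 Supernatants from S. cerevisiae expressing plectasin variants, grown 3 days at 30 °C in galactose medium, were applied to agarose containing 5×10^5 cfu/mL S. carnosus. Plates were incubated 3 h at 37 °C, overlaid, left overnight and MTT-stained. Clearing zones were scored as 2 = plectasin-like, 3 = better, 1 = worse.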

Row | Sequence | Activity (antimicrobial activity relative to the activity of plectasin)
7 | GFGCNGPWDENDMQCHNHCKSIKGYKGGYCAKGGFVCKCY [Mutation D11N] | 3
8 | GFGCNGPWGEDDMRCHNHCKSIRGYKGGYCAKGGFVCKCY [D9G + Q14R + K23R] | 3
9 | GFGCRGPWDEDDMQCHNHCKSIKGYKGGYCAKGGFVCKCY [Mutation N5R] | 3
10 | GFGCSGPWDEDDMRCHNHCKAIRGYKGGYCAKGGFVCKCY [N5S + Q14R + S21A + K23R] | 3

system: Staphylococcus aureus, ATCC 29213; assay: MIC, NCCLS/CLSI guidelines (Example 5), strain A; type: cell-based; details: relative to wildtype Plectasin; average of two independent experiments
Method: as §1, §2, §3, §4

Row | Sequence | Relative MIC, strain A
11 | GFGCNGPWDENDMQCHNHCKSIKGYKGGYCAKGGFVCKCY [Mutation D11N] | 2 (50-80% of Plectasin wildtype MIC)
12 | GFGCNGPWGEDDMRCHNHCKSIRGYKGGYCAKGGFVCKCY [D9G + Q14R + K23R] | 3 (<50% of Plectasin wildtype MIC)
13 | GFGCRGPWDEDDMQCHNHCKSIKGYKGGYCAKGGFVCKCY [Mutation N5R] | 1 (80-100% of Plectasin wildtype MIC)
14 | GFGCSGPWDEDDMRCHNHCKAIRGYKGGYCAKGGFVCKCY [N5S + Q14R + S21A + K23R] | 1 (80-100% of Plectasin wildtype MIC)

system: panel of 6 different strains of Staphylococcus aureus; assay: Average MIC, NCCLS/CLSI guidelines using caMHB (Example 6); type: cell-based; details: average over 6 S. aureus strains, duplicate; MIC above 32 counted as 64; read after 18-24 hours at 37° C.
Outline: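 MICs were determined by broth dilution per NCCLS/CLSI in caMHB against six S. aureus strains (four MSSA, two MRSA), with peptides at 0.03–32 microgram/mL, read after 18-24 h at 37° C. Each was tested in duplicate and the two results averaged; MICs above 32 micrograms/mL were counted as 64.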

Row | Sequence | Average MIC [micrograms/mL]
15 | GFGCKGPWDEDDMQCHNHCKSIKGYKGGYCAKGGFVCKCY [Mutation N5K] | 12
16 | GFGCNGPWDEDDKQCHNHCKSIKGYKGGYCAKGGFVCKCY [Mutation M13K] | 12
17 | GFGCNGPWDENDMQCHNHCKSIKGYKGGYCAKGGFVCKCY [Mutation D11N] | 6
18 | GFGCNGPWGEDDMRCHNHCKSIRGYKGGYCAKGGFVCKCY [D9G + Q14R + K23R] | 2
19 | GFGCRGPWDEDDMQCHNHCKSIKGYKGGYCAKGGFVCKCY [Mutation N5R] | 8
20 | GFGCSGPWDEDDMRCHNHCKAIRGYKGGYCAKGGFVCKCY [N5S + Q14R + S21A + K23R] | 9

system: Staphylococcus aureus, ATCC 29737; assay: MIC, NCCLS/CLSI guidelines (Example 5), strain C; type: cell-based; details: relative to wildtype Plectasin; average of two independent experiments
Method: as §1, §2, §3, §4

Row | Sequence | Relative MIC, strain C
21 | GFGCNGPWDENDMQCHNHCKSIKGYKGGYCAKGGFVCKCY [Mutation D11N] | 2 (50-80% of Plectasin wildtype MIC)
22 | GFGCNGPWGEDDMRCHNHCKSIRGYKGGYCAKGGFVCKCY [D9G + Q14R + K23R] | 3 (<50% of Plectasin wildtype MIC)
23 | GFGCRGPWDEDDMQCHNHCKSIKGYKGGYCAKGGFVCKCY [Mutation N5R] | 2 (50-80% of Plectasin wildtype MIC)
24 | GFGCSGPWDEDDMRCHNHCKAIRGYKGGYCAKGGFVCKCY [N5S + Q14R + S21A + K23R] | 2 (50-80% of Plectasin wildtype MIC)

system: Staphylococcus aureus, MRSA ST80 (2003); assay: MIC, NCCLS/CLSI guidelines (Example 5), strain E; type: cell-based; details: relative to wildtype Plectasin; average of two independent experiments
Method: as §1, §2, §3, §4

Row | Sequence | Relative MIC, strain E
25 | GFGCNGPWDENDMQCHNHCKSIKGYKGGYCAKGGFVCKCY [Mutation D11N] | 3 (<50% of Plectasin wildtype MIC)
26 | GFGCNGPWGEDDMRCHNHCKSIRGYKGGYCAKGGFVCKCY [D9G + Q14R + K23R] | 3 (<50% of Plectasin wildtype MIC)
27 | GFGCRGPWDEDDMQCHNHCKSIKGYKGGYCAKGGFVCKCY [Mutation N5R] | 2 (50-80% of Plectasin wildtype MIC)
28 | GFGCSGPWDEDDMRCHNHCKAIRGYKGGYCAKGGFVCKCY [N5S + Q14R + S21A + K23R] | 0 (>100% of Plectasin wildtype MIC)

system: Staphylococcus aureus, MRSA ST5 (2001); assay: MIC, NCCLS/CLSI guidelines (Example 5), strain D; type: cell-based; details: relative to wildtype Plectasin; average of two independent experiments
Method: as §1, §2, §3, §4

Row | Sequence | Relative MIC, strain D
29 | GFGCNGPWDENDMQCHNHCKSIKGYKGGYCAKGGFVCKCY [Mutation D11N] | 2 (50-80% of Plectasin wildtype MIC)
30 | GFGCNGPWGEDDMRCHNHCKSIRGYKGGYCAKGGFVCKCY [D9G + Q14R + K23R] | 3 (<50% of Plectasin wildtype MIC)
31 | GFGCRGPWDEDDMQCHNHCKSIKGYKGGYCAKGGFVCKCY [Mutation N5R] | 2 (50-80% of Plectasin wildtype MIC)
32 | GFGCSGPWDEDDMRCHNHCKAIRGYKGGYCAKGGFVCKCY [N5S + Q14R + S21A + K23R] | 2 (50-80% of Plectasin wildtype MIC)
